Several values for one entry are separate records, joined by “and”; a condition that tells them apart may be missing. Identical values can stand only once. ± gives the expanded uncertainty stated by the source.
Experiment: activity coefficient (dimensionless); of the first substance listed, at infinite dilution; xn = mol fraction of the nth substance listed
Settings: 101 kPa, Liquid, Chromatography, x1 = 0

| SMILES | activity coefficient (303.15 K) | activity coefficient (313.15 K) | activity coefficient (323.15 K) |
| --- | --- | --- | --- |
| CCCCCCCCC [nonane] + CCCCCCCC[N+](C)(CCCCCCCC)CCCCCCCC.O=C(O)c1ccccc1[S-] | 3.21 and 3.11 | 3.07 and 3.03 | 2.98 and 2.88 |
| CC(C)=O [acetone] + CCCCCCCC[N+](C)(CCCCCCCC)CCCCCCCC.O=C(O)c1ccccc1[S-] | 0.69 and 0.65 | 0.66 and 0.63 | 0.64 and 0.61 |
| c1ccccc1 [benzene] + CCCCCCCC[N+](C)(CCCCCCCC)CCCCCCCC.O=C(O)c1ccccc1[S-] | 0.51 and 0.48 | 0.5 and 0.48 | 0.5 and 0.47 |
| C=CCCCCCC [oct-1-ene] + CCCCCCCC[N+](C)(CCCCCCCC)CCCCCCCC.O=C(O)c1ccccc1[S-] | 2.09 and 2.06 | 2.06 and 2.02 | 2 and 1.93 |
| CCC(C)=O [butanone] + CCCCCCCC[N+](C)(CCCCCCCC)CCCCCCCC.O=C(O)c1ccccc1[S-] | 0.66 and 0.62 | 0.64 and 0.61 | 0.62 and 0.59 |
| C1CCCC1 [cyclopentane] + CCCCCCCC[N+](C)(CCCCCCCC)CCCCCCCC.O=C(O)c1ccccc1[S-] | 1.1 and 1.08 | 1.07 and 1.05 | 1.04 and 1 |
| C1CCCCC1 [cyclohexane] + CCCCCCCC[N+](C)(CCCCCCCC)CCCCCCCC.O=C(O)c1ccccc1[S-] | 1.34 and 1.32 | 1.28 and 1.26 | 1.23 and 1.19 |
| C1CCCCCCC1 [cyclooctane] + CCCCCCCC[N+](C)(CCCCCCCC)CCCCCCCC.O=C(O)c1ccccc1[S-] | 1.57 ± 0.19 | 1.5 and 1.45 | 1.44 and 1.37 |
| Cc1ccccc1 [toluene] + CCCCCCCC[N+](C)(CCCCCCCC)CCCCCCCC.O=C(O)c1ccccc1[S-] | 0.62 and 0.59 | 0.62 and 0.59 | 0.62 and 0.58 |
| C1CCCCCC1 [cycloheptane] + CCCCCCCC[N+](C)(CCCCCCCC)CCCCCCCC.O=C(O)c1ccccc1[S-] | 1.42 and 1.4 | 1.36 and 1.32 | 1.31 and 1.25 |

Now from value to molecule:

| activity coefficient (303.15 K) | activity coefficient (313.15 K) | activity coefficient (323.15 K) | SMILES |
| --- | --- | --- | --- |
| 1.39 and 1.4 | 1.36 ± 0.17 | 1.33 and 1.28 | C=CCCC [1-pentene] + CCCCCCCC[N+](C)(CCCCCCCC)CCCCCCCC.O=C(O)c1ccccc1[S-] |
| 1.81 ± 0.22 | 1.75 ± 0.22 | 1.7 and 1.65 | CCCCC [pentane] + CCCCCCCC[N+](C)(CCCCCCCC)CCCCCCCC.O=C(O)c1ccccc1[S-] |
| 2.07 ± 0.26 | 1.98 and 1.96 | 1.92 and 1.87 | CCCCCC [hexane] + CCCCCCCC[N+](C)(CCCCCCCC)CCCCCCCC.O=C(O)c1ccccc1[S-] |
| 1.57 and 1.55 | 1.53 and 1.51 | 1.51 and 1.46 | C=CCCCC [hex-1-ene] + CCCCCCCC[N+](C)(CCCCCCCC)CCCCCCCC.O=C(O)c1ccccc1[S-] |
| 2.37 and 2.28 | 2.29 and 2.22 | 2.21 and 2.15 | CCCCCCC [heptane] + CCCCCCCC[N+](C)(CCCCCCCC)CCCCCCCC.O=C(O)c1ccccc1[S-] |
| 0.63 ± 0.08 | 0.65 ± 0.08 | 0.67 ± 0.08 | C#CCCC [1-pentyne] + CCCCCCCC[N+](C)(CCCCCCCC)CCCCCCCC.O=C(O)c1ccccc1[S-] |
| 0.7 and 0.69 | 0.72 ± 0.09 | 0.75 ± 0.09 | C#CCCCC [1-hexyne] + CCCCCCCC[N+](C)(CCCCCCCC)CCCCCCCC.O=C(O)c1ccccc1[S-] |
| 0.88 and 0.84 | 0.92 and 0.9 | 0.94 ± 0.11 | C#CCCCCCC [1-octyne] + CCCCCCCC[N+](C)(CCCCCCCC)CCCCCCCC.O=C(O)c1ccccc1[S-] |
| 2.77 and 2.72 | 2.68 and 2.61 | 2.55 and 2.47 | CCCCCCCC [octane] + CCCCCCCC[N+](C)(CCCCCCCC)CCCCCCCC.O=C(O)c1ccccc1[S-] |
